Earlier results in patent US20060034774A1, “Galactopyrannosyltriaminetetracarboxylate as ligands for bioactivated paramagnetic metal complexes” (Kaohsiung Medical University, priority 2004, published 2006).
Like-named read-outs stand apart in the source and are kept apart here.

Target: β-galactosidase (β-gal) (Escherichia coli, UniProt P00722)
Sequence (P00722 2-1024): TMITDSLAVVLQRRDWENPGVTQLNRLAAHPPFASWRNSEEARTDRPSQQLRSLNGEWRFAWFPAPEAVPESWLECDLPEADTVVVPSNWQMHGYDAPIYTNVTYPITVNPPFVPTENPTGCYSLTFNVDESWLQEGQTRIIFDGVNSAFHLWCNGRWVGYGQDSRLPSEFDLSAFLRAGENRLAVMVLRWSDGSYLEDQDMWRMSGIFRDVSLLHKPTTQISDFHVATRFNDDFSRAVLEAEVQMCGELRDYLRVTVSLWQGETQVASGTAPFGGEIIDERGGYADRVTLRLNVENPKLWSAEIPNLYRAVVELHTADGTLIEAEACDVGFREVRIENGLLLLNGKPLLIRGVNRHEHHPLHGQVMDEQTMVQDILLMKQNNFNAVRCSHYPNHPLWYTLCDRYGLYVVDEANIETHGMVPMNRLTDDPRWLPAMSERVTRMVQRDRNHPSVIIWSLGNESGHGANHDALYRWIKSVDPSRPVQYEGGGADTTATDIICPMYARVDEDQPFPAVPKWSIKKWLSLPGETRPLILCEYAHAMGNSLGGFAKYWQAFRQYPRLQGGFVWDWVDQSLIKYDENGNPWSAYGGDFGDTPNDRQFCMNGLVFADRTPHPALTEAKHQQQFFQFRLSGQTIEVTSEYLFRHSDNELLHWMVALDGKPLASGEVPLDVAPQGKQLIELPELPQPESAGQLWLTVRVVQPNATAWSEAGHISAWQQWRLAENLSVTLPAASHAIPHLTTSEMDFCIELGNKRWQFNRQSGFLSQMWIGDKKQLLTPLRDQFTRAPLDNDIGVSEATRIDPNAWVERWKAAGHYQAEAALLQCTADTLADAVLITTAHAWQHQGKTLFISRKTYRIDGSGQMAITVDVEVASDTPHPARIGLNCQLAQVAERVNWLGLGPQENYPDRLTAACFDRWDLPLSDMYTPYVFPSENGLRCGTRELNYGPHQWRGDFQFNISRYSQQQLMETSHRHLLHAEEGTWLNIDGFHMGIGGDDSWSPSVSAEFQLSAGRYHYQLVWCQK

For O=C(O)CN1CCN(CCO[C@@H]2O[C@H](CO)[C@H](O)[C@H](O)[C@H]2O)CCN(CC(=O)O)CCN(CC(=O)O)CC1 [Egad, 4,7,10-tri(aceticacid)-1-(2-β-galactopyranosylethoxy)-1,4,7,10-tetraagacyclo dodecane], the “number of inner space water molecules” value (after hydrolysis by β-galactosidase (β-gal)) is given as 1.2 and the “number of inner space water molecules” value (before β-galactosidase) is given as 0.7.
